# Results as given in PMC4428071, “Structural basis for epitope masking and strain specificity of a conserved epitope in an intrinsically disordered malaria vaccine candidate” (Scientific Reports, 2015).
# Molecular target: 6D8 scFv
# Assay: Isothermal titration calorimetry (ITC) of MSP2 and peptides into 6D8 scFv
# Format: binding, mouse
# Settings: ITC into 6D8 scFv; 20 mM sodium phosphate, 150 mM NaCl, pH 7.4, 25°C; scFv 20 µM, titrant from 200 µM stocks; error estimates from replicate titrations against 6D8 scFv and mAb (n = 3–5); limit of determinable affinities approx. 5 nM
# From the text: The interaction between 6D8 and MSP2, was examined further using isothermal titration calorimetry (ITC). […] Full-length recombinant MSP2 binds 6D8 scFv with lower affinity, permitting quantification by ITC. Even though 6D8 recognizes a fully conserved epitope in MSP2, the affinities of 6D8 scFv for full-length 3D7 and FC27 MSP2 differ by as much as 5-fold (Fig. 3C,D). To explore the basis of this strain-specificity, we synthesized peptides encompassing the minimal 6D8 epitope and extending C-terminally into the variable region. […] Identical affinities were observed when 6D8 IgG was used in place of the scFv (Fig. S4).
# The affinity of 6D8 IgG and scFv for synthetic peptides and recombinant MSP2 was determined by ITC (Microcal ITC-200, GE Healthcare) and SPR (Biacore T200, GE Healthcare) using a Mouse Antibody Capture kit (GE Healthcare) (SI Materials and methods). Antibody binding to lipid-tethered MSP2 was assessed SPR using an L1 chip (GE Healthcare). Vesicles of POPC containing 1 mol % DOGS-NTA were adsorbed onto the chip, and loaded with Ni^2+ and then FC27 MSP2–6His. […]
# MSP2 peptides were purified on a reverse-phase C18 column (Zorbax, 10 x 300 mm) using a linear gradient of 5 to 40% of solvent B (90% acetonitrile / 9.9% water / 0.1% TFA) against solvent A (0.1% TFA in water) over 40 min. The purity of MSP2 peptides was assessed by mass spectrometry (LC-MS). […]
substance,measurement,value
Ac-NAYNMSIRR-NH2 [MSP2_14-22],Kd,~5 nM
